Values after ≈ are worked out from the molar mass of the structure shown.
Experiments:
[1] = tested on: Streptococcus mutans; assay: Antimicrobial activity against Streptococcus mutans ATCC 25175 after 48 hrs by twofold serial broth dilution method; format: functional; settings: ATCC 25175, 48 h
[2] = tested on: Corynebacterium ammoniagenes; assay: Antimicrobial activity against Brevibacterium ammoniagenes ATCC 6872 after 48 hrs by twofold serial broth dilution method; format: functional; settings: ATCC 6872, 48 h

Compound | MIC [1] | MIC [2]
CC(C)[C@H]1C(=O)C[C@@]2(C)[C@@H]3C(CO)=CC[C@H]2[C@H]13 | > 800 µg/mL | > 800 µg/mL
CC(C)[C@@H]1C(=O)CC2(C)C3C(CO)=CC[C@@H]2[C@H]31 | > 800 µg/mL | > 800 µg/mL
CC(C)[C@@H]1CCC2(C)C3C(CO)=CC[C@@H]2[C@H]31 [YLANGENOL] | 25 µg/mL (≈ 0.113 mM) | 25 µg/mL (≈ 0.113 mM)

Further lines, results first:

MIC [1] | MIC [2] | Compound
800 µg/mL (≈ 3.44 mM) | 800 µg/mL (≈ 3.44 mM) | CC(C)[C@H]1C(=O)CC2(C)C3C(C=O)=CC[C@@H]2[C@H]31
800 µg/mL (≈ 3.44 mM) | 800 µg/mL (≈ 3.44 mM) | CC(C)[C@@H]1C(=O)CC2(C)C3C(C=O)=CC[C@@H]2[C@H]31
